Source: ChEMBL document CHEMBL1201862, “PubChem BioAssay data set” (2004)
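Grown in 96-well plates, cells were treated for 48 hours with each compound at five concentrations. Insufficient inhibition: endpoint recorded as highest concentration tested. GI50 marks 50% less growth.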 Activity calls are given as the source filed them. Cut-off read from the data, not from the text of the source: active = GI50 up to about 1.1 µM and inactive = higher.

Columns and labels:
Assay in all cases: NCI anticancer screen, dose series, 48 h
786-0 = tested on: 786-0
A549 = tested on: A549
COLO 205 = tested on: COLO 205
HCC 2998 = tested on: HCC 2998
HL-60 = tested on: HL-60
HT-29 = tested on: HT-29
KM12 = tested on: KM12
MOLT-4 = tested on: MOLT-4
NCI-H226 = tested on: NCI-H226
NCI-H23 = tested on: NCI-H23
OVCAR-4 = tested on: OVCAR-4
RPMI-8226 = tested on: RPMI-8226
SK-MEL-28 = tested on: SK-MEL-28
SK-OV-3 = tested on: SK-OV-3
SN12C = tested on: SN12C
SNB-19 = tested on: SNB-19
SR = tested on: SR
SW-620 = tested on: SW-620
TK-10 = tested on: TK-10

| SMILES | GI50 (786-0) | GI50 (A549) | GI50 (COLO 205) | GI50 (HCC 2998) | GI50 (HL-60) | GI50 (HT-29) | GI50 (KM12) | GI50 (MOLT-4) | GI50 (NCI-H226) | GI50 (NCI-H23) | GI50 (OVCAR-4) | GI50 (RPMI-8226) | GI50 (SK-MEL-28) | GI50 (SK-OV-3) | GI50 (SN12C) | GI50 (SNB-19) | GI50 (SR) | GI50 (SW-620) | GI50 (TK-10) |
| --- | --- | --- | --- | --- | --- | --- | --- | --- | --- | --- | --- | --- | --- | --- | --- | --- | --- | --- | --- |
| CC(C)(C)c1cc[n+](C[n+]2ccc(C(C)(C)C)cc2)cc1 | > 100 µM (inactive) | > 100 µM (inactive) | > 100 µM (inactive) | > 100 µM (inactive) | > 100 µM (inactive) | > 100 µM (inactive) | > 100 µM (inactive) | > 100 µM (inactive) | > 100 µM (inactive) | > 100 µM (inactive) | > 100 µM (inactive) | > 100 µM (inactive) | > 100 µM (inactive) | > 100 µM (inactive) | > 100 µM (inactive) | > 100 µM (inactive) | > 100 µM (inactive) | > 100 µM (inactive) | > 100 µM (inactive) |
| C/C(=N/NC(=S)N(C)CCc1ccccn1)c1cnccn1 | 0.0977 µM (active) | 0.078 µM (active) | < 0.01 µM (active) | 1.4 µM (inactive) | < 0.01 µM (active) | < 0.01 µM (active) | 0.0406 µM (active) | < 0.01 µM (active) | < 0.01 µM (active) | < 0.01 µM (active) | < 0.01 µM (active) | < 0.01 µM (active) | 0.933 µM (active) | 0.0235 µM (active) | < 0.01 µM (active) | 0.437 µM (active) | 0.018 µM (active) | < 0.01 µM (active) | < 0.01 µM (active) |
| CCN(CC)CCN(/C(=N/c1ccccc1)N1CCCCC1)c1ccccc1 | 26.1 µM (inactive) | 14.8 µM (inactive) | 2.3 µM (inactive) | 6 µM (inactive) | 1.63 µM (inactive) | 1.71 µM (inactive) | 5.2 µM (inactive) | 2.99 µM (inactive) | 9.23 µM (inactive) | 4.38 µM (inactive) | 3.87 µM (inactive) | 2.54 µM (inactive) | 16.2 µM (inactive) | 11.9 µM (inactive) | 7 µM (inactive) | 17.8 µM (inactive) | 3.4 µM (inactive) | 6.05 µM (inactive) | 13.2 µM (inactive) |
| O=C(/C=C/c1ccc(F)c(F)c1)OCCc1ccccc1 | > 100 µM (inactive) | > 100 µM (inactive) | > 100 µM (inactive) | > 100 µM (inactive) | > 100 µM (inactive) | 34.5 µM (inactive) | > 100 µM (inactive) | 18 µM (inactive) | > 100 µM (inactive) | 72.9 µM (inactive) | 91.8 µM (inactive) | 77.6 µM (inactive) | > 100 µM (inactive) | > 100 µM (inactive) | > 100 µM (inactive) | > 100 µM (inactive) | 90.6 µM (inactive) | > 100 µM (inactive) | > 100 µM (inactive) |
| COc1ccc(C2SC(=N)Nc3c2c(C)nn3C(=O)c2ccc(Cl)cc2)cc1OC (centres undefined) | > 10 µM (inactive) | > 10 µM (inactive) | > 10 µM (inactive) | > 10 µM (inactive) | > 10 µM (inactive) | > 10 µM (inactive) | > 10 µM (inactive) | > 10 µM (inactive) | > 10 µM (inactive) | > 10 µM (inactive) | > 10 µM (inactive) | > 10 µM (inactive) | > 10 µM (inactive) | > 10 µM (inactive) | > 10 µM (inactive) | > 10 µM (inactive) | > 10 µM (inactive) | > 10 µM (inactive) | > 10 µM (inactive) |
| CC(Oc1ccccc1Cl)C(=O)NN1C(=O)CC(=O)N(c2ccc(Cl)cc2)C1=S (centres undefined) | 40.8 µM (inactive) | 36.5 µM (inactive) | 39.7 µM (inactive) | 50.9 µM (inactive) | 3.21 µM (inactive) | 47.8 µM (inactive) | 47.6 µM (inactive) | 27.4 µM (inactive) | 52.8 µM (inactive) | 38 µM (inactive) | 28.1 µM (inactive) | 33.2 µM (inactive) | 94.6 µM (inactive) | 59 µM (inactive) | 35.2 µM (inactive) | 66.5 µM (inactive) | 8.77 µM (inactive) | 52 µM (inactive) | 54.7 µM (inactive) |
| O=C(c1cc2c(c3ccccc13)NC1(CCCCC1)N=C2C(F)(F)F)C(F)(F)F | 3.82 µM (inactive) | 4.35 µM (inactive) | 5.57 µM (inactive) | 2.29 µM (inactive) | 2.9 µM (inactive) | 3.66 µM (inactive) | 3.42 µM (inactive) | 3.29 µM (inactive) | 4.41 µM (inactive) | 3.83 µM (inactive) | 3.73 µM (inactive) | 3.47 µM (inactive) | 9.1 µM (inactive) | 5.61 µM (inactive) | 3.66 µM (inactive) | 5.4 µM (inactive) | 3.6 µM (inactive) | 4.7 µM (inactive) | 4.01 µM (inactive) |
| CC(=O)OCC1OC(OC(C)=O)C(Nc2ncc(-c3ccc(C)cc3)s2)C(OC(C)=O)C1OC(C)=O (centres undefined) | 16.6 µM (inactive) | 18.6 µM (inactive) | 17.7 µM (inactive) | 29.7 µM (inactive) | > 10 µM (inactive) | 21.2 µM (inactive) | > 10 µM (inactive) | 11 µM (inactive) | 26.4 µM (inactive) | 12 µM (inactive) | 16.9 µM (inactive) | 12.9 µM (inactive) | 17.4 µM (inactive) | 44.1 µM (inactive) | 18.2 µM (inactive) | 21.4 µM (inactive) | 26.4 µM (inactive) | 13.7 µM (inactive) | 18.8 µM (inactive) |
| CCOP(=O)(O)C(Nc1ccc(/N=N/c2ccccc2)cc1)c1cccc(C(Nc2ccc(/N=N/c3ccccc3)cc2)P(=O)(O)OCC)c1 (centres undefined) | 60 µM (inactive) | 34.2 µM (inactive) | 21.6 µM (inactive) | 25.2 µM (inactive) | 22.1 µM (inactive) | 20.1 µM (inactive) | 32.6 µM (inactive) | 16.7 µM (inactive) | > 100 µM (inactive) | 71.1 µM (inactive) | 47.2 µM (inactive) | 23.2 µM (inactive) | 32.3 µM (inactive) | 81.3 µM (inactive) | 52 µM (inactive) | 59.8 µM (inactive) | 31.3 µM (inactive) | 35.2 µM (inactive) | > 100 µM (inactive) |
| CN(C)NC1=NS(=O)(=O)c2cc3c(=O)n(C)[nH]c3cc2S1 | > 10 µM (inactive) | > 10 µM (inactive) | > 10 µM (inactive) | > 10 µM (inactive) | > 10 µM (inactive) | > 10 µM (inactive) | > 10 µM (inactive) | > 10 µM (inactive) | > 10 µM (inactive) | > 10 µM (inactive) | > 10 µM (inactive) | > 10 µM (inactive) | > 10 µM (inactive) | > 10 µM (inactive) | > 10 µM (inactive) | > 10 µM (inactive) | > 10 µM (inactive) | > 10 µM (inactive) | > 10 µM (inactive) |
| CCOC(=O)c1ccc(/N=c2\oc3ccc(OC)cc3cc2-c2nc3ccccc3[nH]2)cc1 | > 100 µM (inactive) | 51.2 µM (inactive) | 73.5 µM (inactive) | 86.5 µM (inactive) | > 100 µM (inactive) | > 100 µM (inactive) | > 100 µM (inactive) | > 100 µM (inactive) | 0.516 µM (active) | 10.4 µM (inactive) | > 100 µM (inactive) | > 100 µM (inactive) | > 100 µM (inactive) | 73.8 µM (inactive) | > 100 µM (inactive) | 42.9 µM (inactive) | 59.3 µM (inactive) | 8.13 µM (inactive) | > 100 µM (inactive) |
